Assay results as given in US20230027864A1, “COMPOSITIONS AND METHODS FOR DELIVERY OF AGENTS TO IMMUNE CELLS” (ModernaTX, Inc., priority 2018, published 2023).

system: T cells; experiment: Additional LNPs: T cell transfection in vitro, mOX40L mRNA, labeled LNPs; assay type: cell-based, human; conditions: ionizable lipid component, FIG. 43
Protocol: In this Example, additional LNPs comprising various lipid components and at different ratios were made and tested for their ability to transfect T cells in vitro. Transfection was performed as in Example 5 using LNPs encapsulating an mRNA encoding mouse OX40L. LNPs were labeled and the results were determined for the mean % cells with LNPs associated, the mean % cells expressing mOX40L and the % of LNP-associated cells expressing mOX40L, as described hereinbefore.

SMILES | immune cell delivery potentiating ability in T cells, amino lipid panel
CCCCCCCCC(C)OC(=O)CCCCCCCN(CCCCCCCC(=O)OC(CCCCCCCC)CCCCCCCC)CCCNc1c(NC)c(=O)c1=O (stereo not drawn) [Compound I-347] | exhibited immune cell delivery potentiating ability in T cells
CCCCCCCCC(C)OC(=O)CCCCCCCN(CCO)CCCCCCCC(=O)OC(CCCCCCCC)CCCCCCCC (stereo not drawn) [Compound I-48] | exhibited immune cell delivery potentiating ability in T cells
CCCCCCCCCOC(=O)CCCCCCCN(CCCCCCCC(=O)OC(CCCCCCCC)CCCCCCCC)CCCCNc1c(NC)c(=O)c1=O [Compound I-351] | exhibited immune cell delivery potentiating ability in T cells
CCCCCCCCCC(=O)OCCCCCCCN(CCCCCCCC(=O)OC(CCCCCCCC)CCCCCCCC)CCCNc1c(NC)c(=O)c1=O [Compound I-309] | exhibited immune cell delivery potentiating ability in T cells
CCCCCCCCC(CCC)OC(=O)CCCCCCCN(CCCCCCCC(=O)OC(CCCCCCCC)CCCCCCCC)CCCNc1c(NC)c(=O)c1=O (stereo not drawn) [Compound I-348] | exhibited immune cell delivery potentiating ability in T cells
CCCCCCCCC(C)OC(=O)CCCCCN(CCCCCCCC(=O)OC(CCCCCCCC)CCCCCCCC)CCCNc1c(NC)c(=O)c1=O (stereo not drawn) [Compound I-349] | exhibited immune cell delivery potentiating ability in T cells
CCCCCCCCC(CC)OC(=O)CCCCCCCN(CCCCCCCC(=O)OC(CCCCCCCC)CCCCCCCC)CCCCNc1c(NC)c(=O)c1=O (stereo not drawn) [Compound I-352] | exhibited immune cell delivery potentiating ability in T cells
CCCCCCCCC(CC)OC(=O)CCCCCN(CCCCCCCC(=O)OC(CCCCCCCC)CCCCCCCC)CCCNc1c(NC)c(=O)c1=O (stereo not drawn) [Compound I-350] | exhibited immune cell delivery potentiating ability in T cells
CCCCCCCCCCCOC(=O)CCCCCN(CCCCCCCC(=O)OC(CCCCCCCC)CCCCCCCC)CCCNc1c(NC)c(=O)c1=O [Compound I-317] | exhibited immune cell delivery potentiating ability in T cells
CCCCCCCCCOC(=O)CCCCCCCN(CCCCCCCC(=O)OC(CCCCCCCC)CCCCCCCC)CCCNc1c(NCC)c(=O)c1=O [Compound I-292] | exhibited immune cell delivery potentiating ability in T cells

same assay, conditions: phospholipid component, FIG. 45

SMILES | immune cell delivery potentiating ability in T cells, helper lipid panel
CCCCCCCCCCCCCC(=O)OC[C@H](COP(=O)([O-])OCC[N+](C)(C)C)OC(=O)CCCCCCCCCCCCC [DMPC, 1,2-dimyristoyl-sn-glycero-phosphocholine, reference compound] | exhibited immune cell delivery potentiating ability in T cells
CCCCCCCCCCCCCCCC(=O)OC[C@H](COP(=O)([O-])OCC[N+](C)(C)C)OC(=O)CCCCCCCCCCCCCCC [DPPC, 1,2-dipalmitoyl-sn-glycero-3-phosphocholine, reference compound] | exhibited immune cell delivery potentiating ability in T cells

same assay, conditions: structural component, FIG. 44

SMILES | immune cell delivery potentiating ability in T cells, sterol panel
CC(C)C(/C=C/[C@@H](C)[C@H]1CC[C@H]2[C@@H]3CC=C4C[C@@H](O)CC[C@]4(C)[C@H]3CC[C@]12C)C(C)C [Compound 5-167] | exhibited immune cell delivery potentiating ability in T cells
CC[C@H](/C=C/[C@@H](C)[C@H]1CC[C@H]2[C@@H]3CC=C4C[C@@H](O)CC[C@]4(C)[C@H]3CC[C@]12C)C(C)C [Compound S-140] | exhibited immune cell delivery potentiating ability in T cells
CCC(/C=C/[C@@H](C)[C@H]1CC[C@H]2[C@@H]3CC=C4C[C@@H](O)CC[C@]4(C)[C@H]3CC[C@]12C)CC [Compound 5-160] | exhibited immune cell delivery potentiating ability in T cells
CC(C)[C@H](C)CC[C@@H](C)[C@H]1CC[C@H]2[C@@H]3CC[C@H]4C[C@@H](O)CC[C@]4(C)[C@H]3CC[C@]12C [Compound 5-159] | exhibited immune cell delivery potentiating ability in T cells
CC(C)[C@@H](C)/C=C/[C@@H](C)[C@H]1CC[C@H]2[C@@H]3CC=C4C[C@@H](O)CC[C@]4(C)[C@H]3CC[C@]12C [Compound S-148, brassicasterol] | exhibited immune cell delivery potentiating ability in T cells
CC(C)[C@@H](C)CC[C@@H](C)[C@H]1CC[C@H]2[C@@H]3CC[C@H]4C[C@@H](O)CC[C@]4(C)[C@H]3CC[C@]12C [Compound S-151] | exhibited immune cell delivery potentiating ability in T cells
CC[C@H](CC[C@@H](C)[C@H]1CC[C@H]2[C@@H]3CC[C@H]4C[C@@H](O)CC[C@]4(C)[C@H]3CC[C@]12C)C(C)C [Compound S-144, β-sitostanol] | exhibited immune cell delivery potentiating ability in T cells
CC(C)C(CC[C@@H](C)[C@H]1CC[C@H]2[C@@H]3CC[C@H]4C[C@@H](O)CC[C@]4(C)[C@H]3CC[C@]12C)C(C)C [Compound 5-173] | exhibited immune cell delivery potentiating ability in T cells
CCC(/C=C/[C@@H](C)[C@H]1CC[C@H]2[C@@H]3CC=C4C[C@@H](O)CC[C@]4(C)[C@H]3CC[C@]12C)(CC)CC [Compound 5-166] | exhibited immune cell delivery potentiating ability in T cells
CC(C)[C@H](C)CC[C@@H](C)[C@H]1CC[C@H]2[C@@H]3CC=C4C[C@@H](O)CC[C@]4(C)[C@H]3CC[C@]12C [Compound S-143, campesterol] | exhibited immune cell delivery potentiating ability in T cells

same assay, conditions: third series, against Compound I-18 formulations, FIG. 47

SMILES | immune cell delivery potentiating ability in T cells, other ionizable lipids
CCCCCCCCCCC(O)CN(CCCCC1NC(=O)C(CCCCN(CC(O)CCCCCCCCCC)CC(O)CCCCCCCCCC)NC1=O)CC(O)CCCCCCCCCC (stereo not drawn) [CKK-E12, reference compound] | exhibited immune cell delivery potentiating ability in T cells
CCCCCC=CCC=CCCCCCCCCC(CCCCCCCCC=CCC=CCCCCC)OC(=O)CCCN(C)C (stereo not drawn) [MC3, heptatriaconta-6,9,28,31-tetraen-19-yl 4-(dimethylamino)butanoate, reference compound] | exhibited immune cell delivery potentiating ability in T cells

system: T cells; experiment: LNP association and GFP mRNA expression in T cells of human PBMCs; assay type: cell-based; conditions: ionizable lipid component of the LNP, FIG. 30
Protocol: In a second series of experiments, additional compounds, were tested in the LNPs for their ability to enhance delivery to T cells. For these experiments, the association of the LNP with cells and the expression of mRNA-encoding protein within the transfected cells was assessed at the cell-by-cell level. Peripheral blood mononuclear cells (PBMCs) from human donors were used. PBMCs were predominately T cells (40-60%), B cells (3-15%), and monocytes (15-35%), but also contained small numbers of other cell types. LNPs were incubated with serum or PBS for 30 minutes and then added to the PBMCs. The LNP concentration was 0.050 mg/ml, the LNP volume was 0.1 ml.
LNPs contained 0.1% Rhodamine-DOPE in addition to the other LNP components to facilitate detection. Thus, the ratios set forth in the tables below include 0.1 for the rhodamine label. For example, 50:10:10:27.9:2:0.1 AL:DSPC:chol:sterol:Cmp 428 indicates 50% amino lipid as the ionizable lipid, 10% DSPC as the phospholipid, 10% cholesterol, 27.9% phytosterol, 2% Compound 428 as the PEG lipid and 0.1% for the rhodamine-DOPE label. To prepare a non-labeled LNP, the same ratios are used except that the 0.1% rhodamine label is omitted and an additional 0.1% of structural lipid (cholesterol or cholesterol/phytosterol blend) is used (e.g., 27.9% becomes 28%).
Cells were sorted by flow cytometry into subsets based on expression of certain markers: CD3 (T cells), CD20 (B cells), and CD3-, CD20-, CD14+(Monocytes).
mRNA encoding GFP was used as a model agent to effect expression of an intracellular protein.
When conducting flow cytometry, the Y-axis was signal from the rhodamine tag on the LNP and the X-axis was the GFP signal showing expression of the protein.
The “associated” population is any rhodamine+ and/or GFP+ cell and the percent of these cells was calculated by dividing by the total number of cells. The “expression” population is any GFP+ cell and the percent of these cells was calculated by dividing by the total number of cells. The percent of associated cells expressing was obtained by dividing the % expressing cells by the % associated cells.

SMILES | immune cell delivery potentiating ability in T cells, amino lipid panel
CCCCCCCCC(C)OC(=O)CCCCCCCN(CCO)CCCCCCCC(=O)OC(CCCCCCCC)CCCCCCCC (stereo not drawn) [Compound I-48] | exhibited immune cell delivery potentiating ability in T cells
CCCCCCCCC(CCC)OC(=O)CCCCCCCN(CCCCCCCC(=O)OC(CCCCCCCC)CCCCCCCC)CCCNS(C)(=O)=O (stereo not drawn) [Compound I-330] | exhibited immune cell delivery potentiating ability in T cells
CCCCCCCCC(CCC)OC(=O)CCCCCCCN(CCCO)CCCCCCCC(=O)OC(CCCCCCCC)CCCCCCCC (stereo not drawn) [Compound I-328] | exhibited immune cell delivery potentiating ability in T cells
CCCCCCCCCOC(=O)CCCCCCCN(CCCCCCCC(=O)OC(CCCCCCCC)CCCCCCCC)CCCNc1c(NCC)c(=O)c1=O [Compound I-292] | exhibited immune cell delivery potentiating ability in T cells
CCCCCCCCC(CCC)OC(=O)CCCCCCCN(CCO)CCCCCCCC(=O)OC(CCCCCCCC)CCCCCCCC (stereo not drawn) [Compound I-50] | exhibited immune cell delivery potentiating ability in T cells

same assay, conditions: phospholipid component of the LNP, FIG. 32

SMILES | immune cell delivery potentiating ability in T cells, helper lipid panel
CCCCCCCCCCCCCCCCCC(=O)OC[C@H](COP(=O)([O-])OCC[N+](C)(C)C)OC(=O)CCCCCCCCCCCCCCCCC [DSPC, 1,2-distearoyl-sn-glycero-3-phosphocholine, reference compound] | exhibited immune cell delivery potentiating ability in T cells
